How the values were obtained:
[1] = tested on: MCF-7 cells; assay: Breast cancer cell growth inhibition, 4 h treatment
Protocol: (§1) Breast cancer cell growth inhibition: The ER-targeted DOX-formaldehyde conjugates, 11a-c, were evaluated against four breast cancer cell lines that differ in terms of estrogen receptor and multidrug resistance expression. MCF-7 cells are human breast adenocarcinoma cells that express estrogen receptor at a level of 195,000 sites/cell. MCF-7/Adr cells are an ER-negative, doxorubicin-resistant variant of the parent MCF-7 that express the multidrug resistance (MDR) phenotype. MDA-MB-231 and MDA-MB-435 are ER-negative human breast adenocarcinoma and ductal carcinoma cells, respectively. All cytotoxins were formulated as 100× solutions in DMSO/1% AcOH and delivered to cells as 1% DMSO (0.01% AcOH) in cell culture medium. In all experiments cell treatment lasted 4 h.
(§2) In Vitro cellular growth inhibition experiments: The IC50 for the targeted formaldehyde conjugates and all control compounds were performed as previously described with minor modifications. All compounds were solubilized in dimethylsulfoxide containing 1% v/v acetic acid. The concentrations of all 100× DMSO/1% AcOH drug solutions was determined spectrophotometrically by absorbance at 480 nm (ε=[…]). […] For every experiment each drug level and controls were performed in hexuplicate; each experiment was performed in at least duplicate. Error bars represent one standard deviation about the mean for the six wells per lane measured for each drug concentration.

[2] = tested on: MCF-7/Adr cells; assay: as above
Protocol: as §1, §2

[3] = tested on: MDA-MB-231; assay: as above
Protocol: as §1, §2

[4] = tested on: MDA-MB-435; assay: as above
Protocol: as §1, §2

[5] = tested on: Rtx-6 cells; assay: Growth inhibition of Rtx-6 cells, 4 h treatment; type: cell-based
Protocol: Effect of DOX-TEG-TAM on AEBS-negative Rtx-6 breast cancer cells: Rtx-6 cells, kindly provided by Dr. Marc Poirot (Toulouse, France), were evaluated as an AEBS-negative control cell line. […] The Rtx-6 cells were utilized to determine the effect of the absence of AEBS on the cytotoxicity and uptake of DOX, DOXSF, and DOX-TEG-TAM.
The IC50's are compared in Table 6 with those previously determined for MCF-7, MCF-7/Adr, MDA-MB-231 and MDA-MB-435 cells. The concentrations inhibiting 50% of cell growth following 4 h treatment with DOX, DOXSP, and DOX-TEG-TAM were 200 nM, 60 nM, and 70 nM, respectively.
Growth inhibition of Rtx-6 cells: The concentration inhibiting half the growth (IC50) was determined as previously described with minor modifications.

[6] = tested on: MCF-7 cells; assay: Uptake and release by flow cytometry; type: cell-based, human; conditions: for drug uptake (DOX fluorophore): MCF-7, 500 nM, up to 1 h
Protocol: (§3) Uptake and release of DOX, DOXSF, and DOX-TEG-TAM: The uptake and release of DOX-TEG-TAM in breast cancer cells relative to DOX and untargeted DOXSF was performed as described with modifications. Breast cancer cells in log phase growth were dissociated with trypsin-EDTA, counted, resuspended in media at 1.5×10^5 cells/mL, and plated into six well plates (450,000 cells/well) and allowed to adhere overnight. The cells were treated with 0.5 μM DOX, DOXSF, or DOX-TEG-TAM for various amounts of time (20 min, 40 min, and 60 min). Drug treatment was accomplished by addition of 30 μL of 100× drug solution (50 μM) to 3 mL of media which was mixed and immediately added to the cells. For each time point, the media was removed, cells were trypsinized, and trypsinization was quenched with 3 mL phenol red-free RPMI 1640 media (no serum) at 4° C. Cells were pelleted by centrifugation at 300 g for 5 min at 10° C. The supernatant was decanted and the cells were re-suspended in 1 mL serum- and phenol red-free RPMI 1640 media and placed on ice.
(§4) For drug retention samples, the cells were treated for 1 h with 0.5 μM DOX, DOXSF, or DOX-TEG-TAM. Following drug treatment, the media was removed and replaced with 3 mL fresh, 37° C., full (containing serum and phenol red indicator) cell media and the cells were incubated for various times (0.5 h, 1 h, 3 h, and 6 h). Following the allotted release times, the cells were prepared as described above. Drug treatment was performed such that all cell samples would be prepared within 2 h.
(§5) The extent of drug uptake and retention was measured by flow cytometry. Cells were analyzed with excitation at 488 nm (15 mW Ar ion laser), with emission monitored between 570 and 600 nm. Instrument settings were optimized for each cell line and held constant for all experiments; 10,000 cells were analyzed for anthracycline fluorescence. The data are presented as the mean fluorescence for each condition with the background, drug-free cell fluorescence subtracted.

[7] = tested on: MDA-MB-435 cells; assay: Uptake, release and competition by flow cytometry; type: cell-based, human; conditions: for decrease of uptake in the presence of tamoxifen: 10 μM tamoxifen competitor
Protocol: Additionally, uptake and release data were obtained for DOX, DOXSF, and DOX-TEG-TAM in estrogen receptor-negative MDA-MB-435 and MDA-MB-231 cells.
Competitive inhibition of drug uptake: If DOX-TEG-TAM targeting is AEBS mediated, the presence of a competitive ligand should inhibit uptake.
as §3, §4, §5
The cell samples were prepared and analyzed by flow cytometry as described above.

[8] = tested on: MDA-MB-435 cells; assay: Drug distribution by fluorescence microscopy; type: cell-based, human; conditions: for cellular distribution of fluorescence: 500 nM
Protocol: Furthermore, once the trigger has fired the DOX fluorophore should appear nuclear.
Analysis of drug distribution by fluorescence microscopy: MDA-MB-435 cells in log phase growth were dissociated with trypsin-EDTA and counted. Cells were suspended in media at 8.3×10^4 cells/mL and 3 mL of cell solution was aliquoted into 6 well plates and allowed to adhere overnight. The cells were treated with 0.5 μM DOX, DOXSF, or DOX-TEG-TAM for various amounts of time (5 min, 20 min, 40 min, 1 h, and 3 h). Drug treatment was accomplished by addition of 30 μL of 100× drug solution (50 μM) to 3 mL of media which was mixed and immediately added to the cells.
Following drug treatment, the media was removed and cells were washed once with 3 mL of serum- and phenol red-free RPMI 1640 at room temperature and 3 mL of the same media was then added back to each well. The cells were then immediately analyzed by fluorescence microscopy. Each condition was performed individually to minimize the amount of time between drug treatment and fluorescence detection.

[9] = MCF-7/Adr (−/+/+), 4 h treatment

SMILES: CC/C(=C(/c1ccc(O)cc1)c1ccc(OCCN(C)CCOCCOCCO/N=C/c2ccc(O)c(C(=O)NCN[C@H]3C[C@H](O[C@H]4C[C@](O)(C(=O)CO)Cc5c(O)c6c(c(O)c54)C(=O)c4c(OC)cccc4C6=O)O[C@@H](C)[C@H]3O)c2)cc1)c1ccccc1 [11c, E/Z-N-(2-Hydroxy-5-{[2-(2-{2-[(2-{4-[1-(4-hydroxy-phenyl)-2-phenyl-but-1-enyl]-phenoxy}-ethyl)-methyl-amino]-ethoxy}-ethoxy)-ethoxyimino]-methyl}-benzamide)-doxorubicin]
- IC50 ([1]; MCF-7 (ER/AEBS/MDR +/+/−), 4 h treatment, listed as DOX-TEG-TAM): 40 ± 6 nM
- fold more active than doxorubicin ([2]; MCF-7/Adr): 140 fold
- fold more cytotoxic than untargeted doxsaliform ([2]; MCF-7/Adr): 28 fold
- IC50 [2, 9]: 60 ± 9 nM
- IC50 ([3]; MDA-MB-231 (−/+/−), 4 h treatment, listed as DOX-TEG-TAM): 30 ± 5 nM
- IC50 ([4]; MDA-MB-435 (−/+/−), 4 h treatment, listed as DOX-TEG-TAM): 40 ± 6 nM
- IC50 [5]: 70 nM
- drug uptake (DOX fluorophore) [6]: 25 RFU
- uptake relative to MDA-MB-435 cells ([6]; MCF-7, 1 h, 500 nM): about 25%
- fluorophore retention ([6]; MCF-7, drug release after 6 h): highest level of doxorubicin fluorophore retention
- fold uptake more than DOX ([7]; MDA-MB-435): 5 fold
- fold uptake more than DOXSF ([7]; MDA-MB-435): 3 fold
- effect of estradiol on uptake ([7]; MDA-MB-435, 20 nM estradiol): no effect
- uptake as % of uptake in the absence of competitor ([7]; MDA-MB-435, 0.5 μM drug, 1 h, 10 μM tamoxifen): 47%
- fluorophore retention vs DOXSF or DOX ([7]; MDA-MB-435, after 1 h treatment with 500 nM): retained to a greater extent
- cellular distribution of fluorescence ([8]; 20 min): cytosolic fluorescence was observed
- cellular distribution of fluorescence ([8]; 3 h): predominantly nuclear

SMILES: COc1cccc2c1C(=O)c1c(O)c3c(c(O)c1C2=O)C[C@@](O)(C(=O)CO)C[C@@H]3O[C@H]1C[C@H](N)[C@H](O)[C@H](C)O1 [doxorubicin, reference compound]
- IC50 ([1]; Homo sapiens, MCF7, 4 h): 200 ± 26 nM
- IC50 ([2]; Homo sapiens, NCI/ADR-RES, 4 h): 10000 ± 1300 nM
- IC50 ([3]; Homo sapiens, MDA-MB-231, 4 h): 300 ± 33 nM
- IC50 ([4]; Homo sapiens, MDA-MB-435, 4 h): 150 ± 14 nM
- IC50 [5]: 200 nM
- drug uptake (DOX fluorophore) [6]: 5 RFU
- decrease of uptake in the presence of tamoxifen ([7]; MDA-MB-435, 0.5 μM drug, 1 h): 8%
- cellular distribution of fluorescence ([8]; 20 min): observed in the nucleus
- cellular distribution of fluorescence ([8]; 3 h): exclusively nuclear

SMILES: COc1cccc2c1C(=O)c1c(O)c3c(c(O)c1C2=O)C[C@@](O)(C(=O)CO)C[C@@H]3O[C@H]1C[C@H](NCNC(=O)c2ccccc2O)[C@H](O)[C@H](C)O1 [doxsaliform, N-(2-Hydroxybenzamido-methyl)-doxorubicin]
- fold less cytotoxic than 11a-c ([1]; MCF-7): 2-3 fold
- IC50 ([1]; MCF-7 (ER/AEBS/MDR +/+/−), 4 h treatment): 70 ± 5 nM
- IC50 [2, 9]: 2000 ± 320 nM
- fold less cytotoxic than 11a-c ([3]; MDA-MB-231): 2-3 fold
- IC50 ([3]; MDA-MB-231 (−/+/−), 4 h treatment): 80 ± 9 nM
- cytotoxicity relative to 11a-c ([4]; MDA-MB-435): equally cytotoxic
- IC50 ([4]; MDA-MB-435 (−/+/−), 4 h treatment): 50 ± 9 nM
- IC50 [5]: 60 nM
- drug uptake (DOX fluorophore) [6]: 16 RFU
- decrease of uptake in the presence of tamoxifen ([7]; MDA-MB-435, 0.5 μM drug, 1 h): 6%
- localization pattern ([8]; control experiment, 0.5 μM): exclusively nuclear

Reference: patent publication US20070275911A1, “Targeted Drug-Formaldehyde Conjugates and Methods of Making and Using the Same” (priority 2003, published 2007)
